Reference: patent US6043045A, “Screening methods for the identification of novel antibiotics” (The Scripps Research Institute, priority 1998, dated 2000)
“Also recorded” adds a separate entry of the source. Where two headings read alike, the source gives them in different places.

Target: T1, KinA (Bacillus subtilis, UniProt P16497)
T1 construct: made in house
T1 sequence (P16497 1-606): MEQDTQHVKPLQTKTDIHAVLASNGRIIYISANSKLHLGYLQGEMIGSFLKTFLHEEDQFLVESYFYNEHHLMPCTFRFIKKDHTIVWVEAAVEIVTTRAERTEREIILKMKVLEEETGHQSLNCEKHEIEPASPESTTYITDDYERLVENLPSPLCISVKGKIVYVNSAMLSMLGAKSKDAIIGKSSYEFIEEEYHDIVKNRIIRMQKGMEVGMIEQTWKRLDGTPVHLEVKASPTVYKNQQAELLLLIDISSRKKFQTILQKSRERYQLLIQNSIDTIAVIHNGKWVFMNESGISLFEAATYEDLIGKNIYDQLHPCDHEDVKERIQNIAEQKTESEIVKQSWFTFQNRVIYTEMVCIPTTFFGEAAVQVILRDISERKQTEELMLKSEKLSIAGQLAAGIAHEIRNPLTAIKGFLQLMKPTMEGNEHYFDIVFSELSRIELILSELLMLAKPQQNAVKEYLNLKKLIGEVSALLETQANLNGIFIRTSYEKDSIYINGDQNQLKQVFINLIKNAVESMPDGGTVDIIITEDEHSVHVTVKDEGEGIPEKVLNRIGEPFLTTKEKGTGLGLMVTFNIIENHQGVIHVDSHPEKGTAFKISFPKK
Assay: biochemical
Assay type: biochemical
Details: for inhibition of KinA phosphorylation of SpoOF (in words): tested at 0.08% final concentration
Experimental: The reactions were performed in a 25 μl final volume containing 100 mM Tris pH 8.0, 100 mM KCl, 2 mM MgCl2, 0.5 mM dithiothreitol, 10% (v/v) glycerol, 0.1 % (w/v) gelatin, 4% (v/v) ethanol, 200 μM total ATP containing approximately 1.5 μCi [gamma-^32 P]ATP (New England Nuclear, 6000 Ci/mMol, 150 μCi/ml), 300 μM SpoOF protein and 0.04 μM KinA protein (Perego, et al., J. Bacteriol. 171: 6187-6196 (1989)) unless otherwise indicated. Fatty acids were added to varying final concentration from solutions made with 100% ethanol (the 4% ethanol concentration in the reaction mixture reflects these addition, or in the case of controls, the addition of ethanol alone). The reactions were initiated by addition of the ATP and incubated for thirty minutes at room temperature.
When higher KinA concentrations were used, the time of incubation was adjusted accordingly. The reactions were stopped by adding an equal volume of loading dye (0.25 M Tris pH 6.8, 20% (v/v) glycerol, 1% sodium dodecyl sulfate (w/v), 140 mM β-mercaptoethanol, 0.05% (w/v) bromophenol blue) and aliquots were loaded onto polyacrylamide gels (5% stacking, 15% separating, using the buffer system of Laemmi, Id., 1970).
The gels were run for approximately 16 hours at 10 mA constant current. The gels were covered with plastic wrap and subjected to autoradiography using Kodak XOmat RP1 film. Quantitation of activity was accomplished by cutting gels slices containing the appropriate phosphoprotein (usually SpoOF~P, see Section E below) and counting the Cerenkov radiation in a Beckman LF7500 scintillation counter (Beckman Instruments, Fullerton, Calif.). Equal-sized slices from blank areas of the gels were also counted and used to adjust for background. Percentage of activity was calculated using the value of the control reaction as 100%.
To quantify our initial assessment of inhibitory properties, the I0.5 values (at 4×10^-8 M KinA) were determined for each of the fatty acids. […] For example, the percent activity at an indicated oleic acid concentration is the ratio (×100) of the incorporation of ^32 P (from [γ^32 P]ATP) into the SpoOF protein relative to the incorporation in the control reaction containing no inhibitor. Typically, data are gathered from at least two different experiments. The I0.5 value is the concentration--e.g., the oleic acid concentration--corresponding to 50% activity as determined from the relevant graph.

[1] = Table 4, I0.5 at 4×10^-8 M KinA, 32P incorporation into SpoOF, read-out: Fatty Acid Inhibitors of KinA Activity (category by I0.5)
[2] = at 4×10^-8 M KinA, read-out: I0.5 value (concentration corresponding to 50% KinA activity)
[3] = Fatty Acid Inhibitors of KinA Activity (category by I0.5), Table 4, I0.5 at 4×10^-8 M KinA, 32P incorporation into SpoOF

SMILES	inhibitory effect on KinA in vitro (in words)	IC50 [1] [µM]	also measured
CC(C)CCCCCCCCCCCC(=O)O [13-methyltetradecanoic]	weak inhibitors	100 to 500	IC50 [2]: 400 µM; inhibitory effect on KinA in vitro (in words) (listed as 13-methyltetradecanoic acid): weak in vitro inhibitors; inhibitory effect on KinA in vitro (in words) (listed as iso 15:0): weak inhibitory properties
CCCCC/C=C\C/C=C\C/C=C\C/C=C\CCCC(=O)O [all cis-5,8,11,14-eicosatetraenoic]	–	–	IC50 [3]: < 70 µM
CC/C=C\C/C=C\C/C=C\CCCCCCCC(=O)O [all cis-9,12,15-octadecanoic]	–	< 70	–
CCCCCC/C=C\CCCCCCCCCC(=O)O [cis-11-octadecanoic]	potent inhibitors	–	IC50 [3]: < 70 µM
CCCCCCCC/C=C\CCCCCCCCCCCC(=O)O [cis-13-docosenoic]	non-inhibitory	> 1000	–
CCCCCCCC/C=C\CCCCCCCCCCCCCC(=O)O [cis-15-tetracosenoic]	non-inhibitory	–	IC50 [3]: > 1000 µM
CCCCCCCCCC(=O)O [decanoic]	not inhibitors	–	IC50 [3]: > 1000 µM
CCCCCCCCCCCC(=O)O [dodecanoic]	not inhibitors	> 1000	–
O=P(O)(O)OCC(O)CO (stereo not drawn) [glycerophosphate]	–	–	inhibition of KinA phosphorylation of SpoOF (in words): Only oleic acid and stearic acid were inhibitory
CCCCCC(=O)O [hexanoic]	not inhibitors	> 1000	–
CCCCCCCCCCCCCCCCCC(=O)O [octadecanoic]	–	–	IC50 [3]: 100 to 500 µM; IC50 (I0.5 value (concentration corresponding to 50% KinA activity), at 4×10^-8 M KinA): 500 µM; inhibitory effect on KinA in vitro (in words) (listed as stearic): little or no inhibitory effect; inhibitory effect on KinA in vitro (in words) (listed as stearic acid): weak inhibitor; also recorded: very weak inhibitor; inhibition of KinA phosphorylation of SpoOF (in words): weak inhibition
CCCCCCCC(=O)O [octanoic]	not inhibitors	> 1000	–
C/C=C/C(=O)O [trans-2-butenoic]	–	> 1000	–
CCCCCCCC/C=C/CCCCCCCC(=O)O [trans-9-octadecenoic]	–	> 1000	inhibitory effect on KinA in vitro (in words) (listed as elaidic): little or no inhibitory effect; also recorded: not inhibitory

Now from value to compound, other results behind:

inhibitory effect on KinA in vitro (in words)	IC50 [1] [µM]	SMILES	also measured
weak inhibitors	100 to 500	CC(C)CCCCCCCCCCC(=O)O [12-methyltridecanoic]	inhibitory effect on KinA in vitro (in words) (listed as 12-methyltridecanoic acid): weak in vitro inhibitors; inhibitory effect on KinA in vitro (in words) (listed as iso 14:0): weak inhibitory properties
not inhibitors	> 1000	CC(C)CCCCCCCCCCCCC(=O)O [14-methylpentadecanoic]	–
not inhibitors	> 1000	CC(C)CCCCCCCCCCCCCC(=O)O [15-methylhexadecanoic]	–
not inhibitors	> 1000	CC(C)CCCCCCCCCCCCCCC(=O)O [16-methylheptadecanoic]	–
–	< 70	CCCCC/C=C\C/C=C\CCCCCCCC(=O)O [cis,cis-9,12-octadecenoic]	–
–	< 70	CCCCCCCCCCC/C=C\CCCCC(=O)O [cis-6-octadecanoic]	–
potent inhibitors	< 70	CCCCCC/C=C\CCCCCCCC(=O)O [cis-9-hexadecanoic]	–
only a weak inhibitor	100 to 500	CCCC/C=C\CCCCCCCC(=O)O [cis-9-tetradecenoic]	IC50 [2]: 200 µM
–	< 70	CCCCCCCC/C=C\CCCCCCCCCC(=O)O [cis-11-eicosenoic]	–
–	> 1000	CCCCCCCCCCCCCCCCCCCC(=O)O [eicosanoic]	–
–	> 1000	CCCCCCCCCCCCCCCCC(=O)O [heptadecanoic]	–
little or no inhibitory effect	> 1000	CCCCCCCCCCCCCCCC(=O)O [hexadecanoic]	inhibition of KinA phosphorylation of SpoOF (in words): Only oleic acid and stearic acid were inhibitory
–	> 1000	CCCCCCCCCCCCCC(=O)O [tetradecanoic]	–
